Test results reported in US20140011781A1, “METHOD FOR TREATING OR […] USING TESTIS EXTRACT AS ACTIVE INGREDIENT” (Industry-Academic Cooperation Foundation, Yeungnam …, priority 2009, published 2014).

How the values were obtained:
Type in all cases: in vivo, CD-1 mouse
reproductive period = test: Analysis of reproductive period change by vaginal smearing; details: during 21 days of subcutaneous injection, female CD-1 mice; nandrolone 3 mg/kg BW; compared with sesame oil control
Description: (§1) Next, the pig testis extracts M1 and M2 were dissolved with first solvent of 100% ethanol, and then sesame oil was added to prepare at a concentration of 1 g/ml. 100% was defined as 100-fold diluted one with the sesame oil, and then the sample was used by diluting to be a concentration of 0.1%, 1%, 10% or 50%. Each concentration (0.1%, 1%, 10%, 50% or 100%) of the pig testis extract was subcutaneously injected to CD-1 mouse of 6 to 8-week raised under physiological condition for 21 days (6 mice per each group).
As mentioned above, each concentration of the pig testis extract was subcutaneously injected to 6-health CD-1 female mice raised under physiological condition for 21 days. Vaginal smearing was performed to analyze reproductive period change during an injection. As a control group, the mice injected with only sesame oil and the mice injected with only 19-nortestosterone (3 mg/kg BW) were used to analyze the effects. At 21 days after treating, the mice were anesthetized with sodium pentobarbital and then their peripheral bloods were collected. And immediately, the mice were sacrificed by a luxation of the cervical vertebral, and a femur for obtaining bone marrow and liver tissue, ovary, and uterus for analyzing cytotoxicity were removed. Some of them were fixed for a histological analysis and some of them were stored at a deep-freezer of −80° C. […]

[1] = test system: CD34 hematopoietic stem cells in bone marrow; test: Numerical change of CD34-marked hematopoietic stem cell using FACS; details: 0.1% extract or nandrolone injected to mice, femur bone marrow
Description: as §1
In the Experimental Example, CD34, which is a marker for hematopoietic stem cell, was used in order to confirm whether a pig testis extract stimulates proliferation of hematopoietic stem cells, or not. Each of 0.1% pig testis extracts M1 and M2 was injected to the mice as the above Experimental Example; then the mice were scarified; their femurs were collected; and then bone marrows were extracted by using PBS solution.
Since then, after reacting with CD34 specific antibody, CD34 hematopoietic stem cells were counted for the analysis by using a fluorescent activated cell sorter.

[2] = test system: red blood cell in peripheral blood; test: Numerical change of RBC in peripheral blood; details: 0.1% extract or nandrolone injected to mice
Description: as §1
Peripheral bloods were obtained after treating each of 0.1% pig testis extracts M1 and M2 under the same condition as the above Experimental Example. Since then, the number of RBC (Red Blood Cell) was counted by using an analyzer.

C[C@]12CC[C@H]3[C@@H](CCC4=CC(=O)CC[C@@H]43)[C@@H]1CC[C@@H]2O [nandrolone]
progress of reproductive period (vaginal smearing) (reproductive period): gradually irregular
number of CD34 hematopoietic stem cell in bone marrow [1]: significantly increased
number of RBC in peripheral blood compared with control group [2]: significantly increased
